From patent US9340590B2 (priority 2011, dated 2016)
Where two headings read alike, the source gives them in different places. Positions of bridges follow the written chain, without caps; N, C: chain ends. Non-standard residues stand in square brackets, D forms with d. Residues, ends and D or L forms follow the SMILES beside them. Nva = CCC[C@H](N)C(=O)O; Abu = CC[C@H](N)C(=O)O

Tests used:
Experiment in all cases: cell-based
hNav1.3 = hNav1.3 (Homo sapiens, UniProt Q9NY46); conditions: for IC50: IonWorks Quattro, read-out: IWQ Use Nav1.3
hNav1.5 = hNav1.5 (Homo sapiens, UniProt Q14524); conditions: IonWorks Quattro, read-out: IWQ Use Nav1.5
hNav1.4 = hNav1.4 (Homo sapiens, UniProt P35499); conditions: IonWorks Quattro, read-out: IWQ Use Nav1.4
hNav1.7 = hNav1.7 (Homo sapiens, UniProt Q15858); type: cell-based; conditions: for IC50: IonWorks Quattro, read-out: IWQ Use Nav1.7
[1] = clamped to −110 mV, depolarized to −10 mV, 5 min after compound, n=2

Sequence of hNav1.7 (Q15858 whole entry, looked up): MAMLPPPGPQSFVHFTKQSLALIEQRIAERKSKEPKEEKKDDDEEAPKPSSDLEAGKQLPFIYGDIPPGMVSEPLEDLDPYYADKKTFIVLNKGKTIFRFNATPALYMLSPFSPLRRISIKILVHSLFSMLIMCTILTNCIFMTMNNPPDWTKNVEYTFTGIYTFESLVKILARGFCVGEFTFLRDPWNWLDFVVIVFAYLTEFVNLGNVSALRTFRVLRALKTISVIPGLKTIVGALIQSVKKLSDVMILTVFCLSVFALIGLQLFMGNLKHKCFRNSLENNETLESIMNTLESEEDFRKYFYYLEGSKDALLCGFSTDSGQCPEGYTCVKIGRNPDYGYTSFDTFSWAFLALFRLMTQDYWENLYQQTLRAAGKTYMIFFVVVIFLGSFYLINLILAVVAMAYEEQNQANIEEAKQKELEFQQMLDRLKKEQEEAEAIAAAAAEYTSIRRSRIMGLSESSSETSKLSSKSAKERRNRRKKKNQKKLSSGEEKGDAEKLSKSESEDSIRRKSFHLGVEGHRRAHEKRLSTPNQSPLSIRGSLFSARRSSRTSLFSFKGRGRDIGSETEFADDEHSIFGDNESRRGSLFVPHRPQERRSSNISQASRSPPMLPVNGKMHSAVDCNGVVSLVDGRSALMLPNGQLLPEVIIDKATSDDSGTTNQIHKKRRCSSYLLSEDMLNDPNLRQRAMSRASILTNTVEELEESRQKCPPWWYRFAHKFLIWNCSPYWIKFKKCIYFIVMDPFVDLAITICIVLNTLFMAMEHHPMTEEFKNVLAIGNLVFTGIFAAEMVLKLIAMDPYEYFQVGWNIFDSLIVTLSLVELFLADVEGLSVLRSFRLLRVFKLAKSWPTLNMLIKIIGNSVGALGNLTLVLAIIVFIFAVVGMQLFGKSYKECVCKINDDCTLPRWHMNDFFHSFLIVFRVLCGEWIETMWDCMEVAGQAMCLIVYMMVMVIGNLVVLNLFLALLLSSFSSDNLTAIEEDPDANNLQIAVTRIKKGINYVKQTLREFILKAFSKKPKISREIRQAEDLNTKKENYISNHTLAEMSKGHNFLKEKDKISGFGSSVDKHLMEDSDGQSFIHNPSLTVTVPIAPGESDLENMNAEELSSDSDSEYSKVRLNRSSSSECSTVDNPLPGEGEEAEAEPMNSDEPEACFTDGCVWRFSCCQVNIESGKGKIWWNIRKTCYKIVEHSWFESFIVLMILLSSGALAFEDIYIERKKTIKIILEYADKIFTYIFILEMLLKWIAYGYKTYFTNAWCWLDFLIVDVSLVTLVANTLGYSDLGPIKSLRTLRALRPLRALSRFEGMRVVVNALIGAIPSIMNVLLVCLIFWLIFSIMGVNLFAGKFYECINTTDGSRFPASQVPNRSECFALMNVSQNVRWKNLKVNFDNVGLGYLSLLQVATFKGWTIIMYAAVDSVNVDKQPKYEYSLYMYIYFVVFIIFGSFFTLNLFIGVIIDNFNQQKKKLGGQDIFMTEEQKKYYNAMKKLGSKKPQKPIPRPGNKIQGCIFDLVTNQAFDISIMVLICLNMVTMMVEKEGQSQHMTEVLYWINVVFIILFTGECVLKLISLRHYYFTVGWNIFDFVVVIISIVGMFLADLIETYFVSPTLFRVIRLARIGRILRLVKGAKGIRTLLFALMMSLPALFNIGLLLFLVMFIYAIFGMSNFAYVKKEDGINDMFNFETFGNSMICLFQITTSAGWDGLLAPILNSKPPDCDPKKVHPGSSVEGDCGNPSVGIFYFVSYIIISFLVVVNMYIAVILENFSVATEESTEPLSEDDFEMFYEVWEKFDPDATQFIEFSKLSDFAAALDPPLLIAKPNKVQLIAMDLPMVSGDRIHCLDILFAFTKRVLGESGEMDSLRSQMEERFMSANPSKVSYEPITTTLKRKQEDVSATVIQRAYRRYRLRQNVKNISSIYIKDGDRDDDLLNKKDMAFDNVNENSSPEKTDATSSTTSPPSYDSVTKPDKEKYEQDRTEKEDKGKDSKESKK
Sequence of hNav1.3 (Q9NY46 whole entry, looked up): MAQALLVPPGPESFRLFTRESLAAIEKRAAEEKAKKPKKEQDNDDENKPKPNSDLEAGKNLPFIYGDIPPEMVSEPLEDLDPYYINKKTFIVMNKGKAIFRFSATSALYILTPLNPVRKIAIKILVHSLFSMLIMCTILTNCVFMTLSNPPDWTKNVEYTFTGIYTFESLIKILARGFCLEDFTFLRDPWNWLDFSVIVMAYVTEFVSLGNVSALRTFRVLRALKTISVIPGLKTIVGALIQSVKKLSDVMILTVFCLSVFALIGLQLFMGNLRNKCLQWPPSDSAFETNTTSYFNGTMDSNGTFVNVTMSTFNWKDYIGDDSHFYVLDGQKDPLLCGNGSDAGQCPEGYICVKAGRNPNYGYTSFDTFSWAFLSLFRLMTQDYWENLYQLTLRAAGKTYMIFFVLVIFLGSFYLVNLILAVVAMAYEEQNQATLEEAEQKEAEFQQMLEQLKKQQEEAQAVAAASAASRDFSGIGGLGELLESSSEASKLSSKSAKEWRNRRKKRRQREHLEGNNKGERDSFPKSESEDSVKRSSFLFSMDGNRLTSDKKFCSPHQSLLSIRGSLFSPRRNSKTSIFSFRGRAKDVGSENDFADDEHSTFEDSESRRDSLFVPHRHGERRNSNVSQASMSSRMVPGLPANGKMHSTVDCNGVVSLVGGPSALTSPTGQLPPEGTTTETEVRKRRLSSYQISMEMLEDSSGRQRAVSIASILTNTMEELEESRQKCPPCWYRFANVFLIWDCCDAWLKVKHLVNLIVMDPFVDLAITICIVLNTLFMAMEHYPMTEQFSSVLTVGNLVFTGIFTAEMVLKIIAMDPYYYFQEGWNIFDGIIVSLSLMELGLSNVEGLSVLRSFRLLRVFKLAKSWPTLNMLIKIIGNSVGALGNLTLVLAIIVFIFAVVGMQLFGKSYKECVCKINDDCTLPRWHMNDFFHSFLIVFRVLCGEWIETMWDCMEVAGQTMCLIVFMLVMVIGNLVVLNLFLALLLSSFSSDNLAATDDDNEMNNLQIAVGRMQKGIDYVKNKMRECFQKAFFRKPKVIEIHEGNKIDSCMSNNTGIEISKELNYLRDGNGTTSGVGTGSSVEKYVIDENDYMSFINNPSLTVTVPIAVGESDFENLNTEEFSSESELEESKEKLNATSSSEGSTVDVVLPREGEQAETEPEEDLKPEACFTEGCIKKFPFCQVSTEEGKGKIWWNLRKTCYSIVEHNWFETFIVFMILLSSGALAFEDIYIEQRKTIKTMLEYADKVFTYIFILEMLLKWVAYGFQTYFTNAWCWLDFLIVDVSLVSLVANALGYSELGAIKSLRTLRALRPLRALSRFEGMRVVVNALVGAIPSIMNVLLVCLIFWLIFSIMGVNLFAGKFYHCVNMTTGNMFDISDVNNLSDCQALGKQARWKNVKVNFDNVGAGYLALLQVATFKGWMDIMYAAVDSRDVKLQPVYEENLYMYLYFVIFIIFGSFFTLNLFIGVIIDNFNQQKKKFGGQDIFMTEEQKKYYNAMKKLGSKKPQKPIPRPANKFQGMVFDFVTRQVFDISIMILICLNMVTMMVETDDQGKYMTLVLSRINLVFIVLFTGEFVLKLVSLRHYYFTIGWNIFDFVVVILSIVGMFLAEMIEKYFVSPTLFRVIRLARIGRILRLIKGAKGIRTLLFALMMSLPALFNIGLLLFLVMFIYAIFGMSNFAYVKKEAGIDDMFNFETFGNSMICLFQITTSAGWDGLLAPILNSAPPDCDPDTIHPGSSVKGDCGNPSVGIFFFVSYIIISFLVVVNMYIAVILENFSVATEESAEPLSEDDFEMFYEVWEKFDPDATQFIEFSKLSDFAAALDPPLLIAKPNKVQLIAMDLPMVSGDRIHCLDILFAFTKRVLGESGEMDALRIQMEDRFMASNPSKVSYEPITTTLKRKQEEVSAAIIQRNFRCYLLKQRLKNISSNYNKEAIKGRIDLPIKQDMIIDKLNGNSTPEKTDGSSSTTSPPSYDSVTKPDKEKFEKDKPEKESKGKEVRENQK

SMILES	IC50 (hNav1.3; [1]) [µM]	IC50 (hNav1.5; [1]) [µM]	IC50 (hNav1.4; [1]) [µM]	IC50 (hNav1.7; [1]) [µM]	IC50 (hNav1.3; use-dependent block, hNav1.3) [µM]	Nav1.4/Nav1.3 (hNav1.3; ratio of IWQ Use values, Nav1.4 over Nav1.3)	Nav1.7/Nav1.3 (hNav1.3; ratio of IWQ Use values, Nav1.7 over Nav1.3)	IC50 (hNav1.5; use-dependent block, hNav1.5) [µM]	IC50 (hNav1.4; use-dependent block, hNav1.4) [µM]	IC50 (hNav1.7; use-dependent block, hNav1.7) [µM]	Nav1.4/Nav1.7 (hNav1.7; ratio of IWQ Use values, Nav1.4 over Nav1.7)
CC(C)C[C@H](NC(=O)[C@H](CCCCN)NC(=O)[C@H](Cc1ccc(O)cc1)NC(=O)[C@H](CCCCN)NC(=O)[C@@H]1CSSC[C@@H]2NC(=O)[C@H](CCCCN)NC(=O)[C@H](CC(=O)O)NC(=O)[C@H](CC(N)=O)NC(=O)[C@H](CC(=O)O)NC(=O)[C@@H]3CCCN3C(=O)[C@H](CC(=O)O)NC(=O)[C@@H]3CSSC[C@H](NC(=O)[C@H](CCCCN)NC(=O)[C@H](Cc4ccc(O)cc4)NC(=O)CNC(=O)[C@H](CCC(=O)O)NC(=O)[C@H](CSSC[C@H](NC(=O)[C@@H](N)CC(=O)O)C(=O)N[C@@H](CC(C)C)C(=O)NCC(=O)N[C@@H](Cc4c[nH]c5ccccc45)C(=O)N[C@@H](Cc4ccccc4)C(=O)N[C@@H](CCCCN)C(=O)NCC(=O)N3)NC2=O)C(=O)N[C@@H](CC(N)=O)C(=O)N[C@@H](CCCNC(=N)N)C(=O)N[C@@H](CCCNC(=N)N)C(=O)N[C@@H](CC(=O)O)C(=O)N[C@@H](CCCCN)C(=O)N[C@@H](Cc2c[nH]c3ccccc23)C(=O)N1)C(N)=O [SEQ ID NO: 468] (H-DCLGWFKGCDPDNDKCCEGYKCNRRDKWCKYKL-NH2; disulfide 2-17, 9-22, 16-29)	9.37	7.8	20	8.93							
CC(C)C[C@H](NC(=O)[C@H](CCCCN)NC(=O)[C@H](Cc1ccc(O)cc1)NC(=O)[C@H](CCCCN)NC(=O)[C@@H]1CSSC[C@@H]2NC(=O)[C@H](CCCCN)NC(=O)[C@H](CC(=O)O)NC(=O)[C@H](CC(N)=O)NC(=O)[C@H](CC(=O)O)NC(=O)[C@@H]3CCCN3C(=O)[C@H](CC(=O)O)NC(=O)[C@@H]3CSSC[C@H](NC(=O)[C@H](CCCCN)NC(=O)[C@H](Cc4ccc(O)cc4)NC(=O)[C@H](CC(N)=O)NC(=O)[C@H](CCC(=O)O)NC(=O)[C@H](CSSC[C@H](NC(=O)[C@@H](N)CC(=O)O)C(=O)N[C@@H](CC(C)C)C(=O)NCC(=O)N[C@@H](Cc4c[nH]c5ccccc45)C(=O)N[C@@H](Cc4ccccc4)C(=O)N[C@@H](CCCCN)C(=O)NCC(=O)N3)NC2=O)C(=O)N[C@@H](CC(N)=O)C(=O)N[C@@H](CCCNC(=N)N)C(=O)N[C@@H](CCCNC(=N)N)C(=O)N[C@@H](CCC(=O)O)C(=O)N[C@@H](CCC(N)=O)C(=O)N[C@@H](Cc2c[nH]c3ccccc23)C(=O)N1)C(N)=O [SEQ ID NO: 469] (H-DCLGWFKGCDPDNDKCCENYKCNRREQWCKYKL-NH2; disulfide 2-17, 9-22, 16-29)	4.92	10.4	11	9.25							
CC(C)C[C@@H]1NC(=O)[C@@H](NC(=O)[C@@H](N)CC(=O)O)CSSC[C@@H]2NC(=O)[C@@H]3CSSC[C@@H](C(=O)N[C@@H](CCCCN)C(=O)N[C@@H](Cc4ccc(O)cc4)C(=O)N[C@@H](CCCCN)C(=O)N[C@@H](CC(C)C)C(=O)N[C@@H](Cc4c[nH]c5ccccc45)C(=O)N[C@@H](CCCCN)C(=O)O)NC(=O)[C@H](Cc4c[nH]c5ccccc45)NC(=O)[C@H](CCCCN)NC(=O)[C@H](CC(=O)O)NC(=O)[C@H](CCCNC(=N)N)NC(=O)[C@H](CCCNC(=N)N)NC(=O)[C@H](CC(N)=O)NC(=O)[C@H](CSSC[C@H](NC(=O)CNC(=O)[C@H](CCCCN)NC(=O)[C@H](Cc4ccccc4)NC(=O)[C@H](Cc4c[nH]c5ccccc45)NC(=O)CNC1=O)C(=O)N[C@@H](CC(=O)O)C(=O)N1CCC[C@H]1C(=O)N[C@@H](CC(=O)O)C(=O)N[C@@H](CC(N)=O)C(=O)N[C@@H](CC(=O)O)C(=O)N[C@@H](CCCCN)C(=O)N3)NC(=O)[C@H](CCCCN)NC(=O)[C@H](Cc1ccc(O)cc1)NC(=O)[C@H](CC(N)=O)NC(=O)[C@H](CCC(=O)O)NC2=O [SEQ ID NO: 473] (H-DCLGWFKGCDPDNDKCCENYKCNRRDKWCKYKLWK-OH; disulfide 2-17, 9-22, 16-29)	3.5	7.6	10	10.4							
CC(C)C[C@@H]1NC(=O)[C@@H](NC(=O)[C@@H](N)CC(=O)O)CSSC[C@@H]2NC(=O)[C@@H]3CSSC[C@@H](C(=O)N[C@@H](CCCCN)C(=O)N[C@@H](Cc4ccc(O)cc4)C(=O)N[C@@H](CCCCN)C(=O)N[C@@H](CC(C)C)C(=O)N[C@@H](Cc4c[nH]c5ccccc45)C(=O)O)NC(=O)[C@H](Cc4c[nH]c5ccccc45)NC(=O)[C@H](CCCCN)NC(=O)[C@H](CC(=O)O)NC(=O)[C@H](CCCNC(=N)N)NC(=O)[C@H](CCCNC(=N)N)NC(=O)[C@H](CC(N)=O)NC(=O)[C@H](CSSC[C@H](NC(=O)CNC(=O)[C@H](CCCCN)NC(=O)[C@H](Cc4ccccc4)NC(=O)[C@H](Cc4c[nH]c5ccccc45)NC(=O)CNC1=O)C(=O)N[C@@H](CC(=O)O)C(=O)N1CCC[C@H]1C(=O)N[C@@H](CC(=O)O)C(=O)N[C@@H](CC(N)=O)C(=O)N[C@@H](CC(=O)O)C(=O)N[C@@H](CCCCN)C(=O)N3)NC(=O)[C@H](CCCCN)NC(=O)[C@H](Cc1ccc(O)cc1)NC(=O)[C@H](CC(N)=O)NC(=O)[C@H](CCC(=O)O)NC2=O [SEQ ID NO: 474] (H-DCLGWFKGCDPDNDKCCENYKCNRRDKWCKYKLW-OH; disulfide 2-17, 9-22, 16-29)	1.4	7.9	10.5	4							
CC(C)C[C@@H]1NC(=O)[C@@H](NC(=O)[C@@H](N)CC(=O)O)CSSC[C@@H]2NC(=O)[C@@H]3CSSC[C@@H](C(=O)N[C@@H](CCCCN)C(=O)N[C@@H](Cc4ccc(O)cc4)C(=O)N[C@@H](CCCCN)C(=O)N[C@@H](CC(C)C)C(=O)N[C@@H](Cc4c[nH]c5ccccc45)C(=O)N[C@@H](CCCCN)C(=O)O)NC(=O)[C@H](Cc4c[nH]c5ccccc45)NC(=O)[C@H](CCCCN)NC(=O)[C@H](CC(=O)O)NC(=O)[C@H](CCCNC(=N)N)NC(=O)[C@H](CCCNC(=N)N)NC(=O)[C@H](CC(N)=O)NC(=O)[C@H](CSSC[C@H](NC(=O)CNC(=O)[C@H](CCCCN)NC(=O)[C@H](Cc4ccccc4)NC(=O)[C@H](Cc4c[nH]c5ccccc45)NC(=O)CNC1=O)C(=O)N[C@@H](CC(=O)O)C(=O)N1CCC[C@H]1C(=O)N[C@@H](CC(=O)O)C(=O)N[C@@H](CC(N)=O)C(=O)N[C@@H](CC(=O)O)C(=O)N[C@@H](CCCCN)C(=O)N3)NC(=O)[C@H](CCCCN)NC(=O)[C@H](Cc1ccc(O)cc1)NC(=O)CNC(=O)[C@H](CCC(=O)O)NC2=O [compound 471] (H-DCLGWFKGCDPDNDKCCEGYKCNRRDKWCKYKLWK-OH; disulfide 2-17, 9-22, 16-29)					1.7	10.0	5.5	14.6	17.4	9.6	1.8
CC[C@@H]1NC(=O)[C@@H]2CSSC[C@@H](C(=O)N[C@@H](CCCCN)C(=O)N[C@@H](Cc3ccc(O)cc3)C(=O)N[C@H](C(=O)N[C@@H](Cc3ccccc3)C(N)=O)C(C)C)NC(=O)[C@H](Cc3c[nH]c4ccccc34)NC(=O)[C@H](CCCCN)NC(=O)[C@H](Cc3c[nH]cn3)NC(=O)[C@H]([C@@H](C)O)NC(=O)[C@H](CCCNC(=N)N)NC(=O)[C@H](CO)NC(=O)[C@H](CSSC[C@H](NC(=O)[C@H](CCCCN)NC(=O)[C@H](CCCNC(=N)N)NC(=O)[C@H](CCSC)NC(=O)[C@H](C)NC(=O)CNC(=O)[C@H](CC(C)C)NC(=O)[C@H](CC)NC(=O)[C@@H](N)CC(=O)O)C(=O)N[C@@H](CC(=O)O)C(=O)N3CCC[C@H]3C(=O)N[C@@H](CC(=O)O)C(=O)N[C@@H](CC(N)=O)C(=O)N[C@@H](CC(=O)O)C(=O)N[C@@H](CCCCN)C(=O)N2)NC(=O)[C@H](C(C)C)NC(=O)[C@H](CC(C)C)NC(=O)[C@H](CC(N)=O)NC(=O)[C@@H]2CCCN2C(=O)[C@H](CCCNC(=N)N)NC1=O [compound 716] (H-D[Abu]LGAMRKCDPDNDKC[Abu]RPNLVCSRTHKWCKYVF-NH2; disulfide 9-23, 16-30)					> 5			49	> 50	3.7	
CCC[C@H](NC(=O)CNC(=O)[C@H](CC(C)C)NC(=O)[C@H](CC)NC(=O)[C@@H](N)CC(=O)O)C(=O)N[C@@H](CC(C)C)C(=O)N[C@@H](CCCNC(=N)N)C(=O)N[C@@H](CCCCN)C(=O)N[C@H]1CSSC[C@@H]2NC(=O)[C@H](C(C)C)NC(=O)[C@H](CC(C)C)NC(=O)[C@H](CC(N)=O)NC(=O)[C@@H]3CCCN3C(=O)[C@H](CCCNC(=N)N)NC(=O)[C@H](CC)NC(=O)[C@H](CSSC[C@@H](C(=O)N[C@@H](CCCCN)C(=O)N[C@@H](Cc3ccc(O)cc3)C(=O)N[C@H](C(=O)N[C@@H](Cc3ccccc3)C(N)=O)C(C)C)NC(=O)[C@H](Cc3c[nH]c4ccccc34)NC(=O)[C@H](CCC(=O)O)NC(=O)[C@H](Cc3c[nH]cn3)NC(=O)[C@H]([C@@H](C)O)NC(=O)[C@H](CCCNC(=N)N)NC(=O)[C@H](CO)NC2=O)NC(=O)[C@H](CCCCN)NC(=O)[C@H](CC(=O)O)NC(=O)[C@H](CC(N)=O)NC(=O)[C@H](CC(=O)O)NC(=O)[C@@H]2CCCN2C(=O)[C@H]([C@@H](C)CC)NC1=O [compound 717] (H-D[Abu]LG[Nva]LRKCIPDNDKC[Abu]RPNLVCSRTHEWCKYVF-NH2; disulfide 9-23, 16-30)					> 5			> 50	> 50	> 5	
